Reference: patent US6461997B1, “Triazole sulfones having herbicidal activity” (Monsanto Technology LLC, priority 1999, dated 2002)

Experiments:
POROL (common purslane) = assay: Pre-plant incorporated (PPI) herbicidal activity, warm season; format: in vivo, Portulaca oleracea; conditions: GR80 = lowest tested rate with 80% or greater inhibition, approx. 14 days after treating, 30/21° C.
Protocol: (§1) In another set of tests, the pre-plant incorporated (PPI) activity of compounds of this invention was evaluated on the same species as for the pre-emergence tests described above. In the PPI tests the following procedure, designed to simulate PPI application, was used.
(§2) A pre-prepared topsoil mixture (described above) was placed in a pot and compacted to a depth of 1.0 to 1.25 cm from the top of the pot. Seeds of each of several monocotyledonous and dicotyledonous annual plant species were placed on top of the soil. A sufficient quantity of soil to cover the seeds and level fill the pot was weighed into an open container. A known amount of the test compound was dissolved or suspended in an organic solvent and applied by spraying to this cover soil. The cover soil was thoroughly mixed to distribute the test compound throughout the cover soil, and was then applied as a cover layer over the seeds. Untreated soil was used as a cover layer for control pots. After treatment the plants were placed in a greenhouse where they received 0.64 cm of overhead irrigation. All subsequent watering consisted of a light overhead mist and/or subirrigation as needed for germination and growth. Tables 9 and 10 below relate to warm season plant species which were placed after pre-emergence treatment in a greenhouse with a 30/21° C. day/night temperature regime. Tables 11 and 12 below relates to cool season plant species placed after pre-emergence treatment in a greenhouse or growth chamber with an 18/13° C. day/night temperature regime. Only the compounds of Examples 1, 6, 8, 11, 13 and 15-20 were included in PPI tests.
(§3) Approximately 14 days after planting and treating, the plants were observed and herbicidal efficacy recorded as percent inhibition by comparison with untreated plants.

KCHSC (kochia) [1] = assay: Pre-plant incorporated (PPI) herbicidal activity, cool season; format: in vivo, Kochia scoparia; conditions: pre-plant incorporated; lowest tested rate with 80% or greater inhibition; about 14 days
Protocol: as §1, §2, §3

ABUTH (velvetleaf) = assay: Pre-emergence herbicidal activity, warm season; format: in vivo, Abutilon theophrasti; conditions: for Pre-emergence activity (GR80) ABUTH: GR80 = lowest tested rate (300, 100, 30, 10 g/ha) with 80% or greater inhibition, approx. 14 days after treating, 30/21° C.
Procedure, shortened: (§4)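 GR80 values derive from percent inhibition relative to untreated plants, read roughly 14 days after sowing and pre-emergence soil-surface treatment (compound in 50:50 acetone/water; rates typically 10, 30, 100, 300 g/ha). Warm-season weeds grew at 30/21° C day/night, cool-season ones at 18/13° C; an asterisk marks activity without reaching 80% at the highest rate.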

LOLMG (annual ryegrass) = assay: Pre-emergence herbicidal activity, cool season; format: in vivo, Lolium multiflorum; conditions: GR80 = lowest tested rate (300, 100, 30, 10 g/ha) with 80% or greater inhibition; approx. 14 days after treating; 18/13° C.
Procedure, shortened: as §4

corn (ZEAMX) = assay: Selectivity test, pre-emergence, warm season crop; format: in vivo; conditions: Zea mays, pre-emergence application, read-out: Percent inhibition, crop ZEAMX
Protocol: (§5) The pre-emergence tests were conducted by the following procedure. Topsoil was sieved to pass through a 1.27 cm screen. Fertilizer was added to the topsoil and the mixture was then sterilized by heating. The topsoil mixture was placed in a pot and compacted to a depth of 1.0 to 1.25 cm from the top of the pot. Seeds of each of several monocotyledonous and dicotyledonous annual plant species were placed on top of the soil. Additional soil was subsequently placed over the seeds to level-fill the pot. A known amount of each test compound dissolved or suspended in an appropriate organic solvent was diluted with a 50:50 mix of acetone and water and applied to the surface of the soil. After treatment the plants were placed in a greenhouse where they received 0.64 cm of overhead irrigation. All subsequent watering consisted of a light overhead mist and/or subirrigation as needed for germination and growth. Tables 5 and 6 below relate to warm season plant species which were placed after pre-emergence treatment in a greenhouse with a 30/21° C. day/night temperature regime. Tables 7 and 8 below relates to cool season plant species placed after pre-emergence treatment in a greenhouse or growth chamber with an 18/13° C. day/night temperature regime.
as §3
Additional pre-emergence and PPI tests were conducted by the procedures described above, on warm and cool season weed species in the presence of crop species, to assess herbicidal selectivity. Crop species included in warm season tests were corn (Zea mays, ZEAMX), rice (Oryza sativa, ORYSA) and soybean (Glycine max, GLYMX). Crop species included in cool season tests were wheat (Triticum aestivum, TRZAW), barley (Hordeunm vulgare, HORVX) and oilseed rape (Brassica napus, BRSNS).
Tables 15 and 16 relate to pre-emergence and PPI tests respectively on warm season species. Table 17 relates to pre-emergence tests on cool season species.

[2] = system: CIRAR (canada thistle (seedling)); assay: Pre-plant incorporated (PPI) herbicidal activity, warm season; format: in vivo, Cirsium arvense; conditions: GR80 = lowest tested rate with 80% or greater inhibition, approx. 14 days after treating, 30/21° C.
Protocol: as §1, §2, §3

DATST (jimsonweed) = assay: Pre-emergence herbicidal activity, warm season; format: in vivo, Datura stramonium; conditions: for Pre-emergence activity (GR80) DATST: GR80 = lowest tested rate (300, 100, 30, 10 g/ha) with 80% or greater inhibition, approx. 14 days after treating, 30/21° C.
Procedure, shortened: as §4

CONAR (field bindweed) [3] = assay: Pre-plant incorporated (PPI) herbicidal activity, warm season; format: in vivo, Convolvulus arvensis; conditions: GR80 = lowest tested rate with 80% or greater inhibition, approx. 14 days after treating, 30/21° C.
Protocol: as §1, §2, §3

[4] = system: AGRRE (quackgrass (seedling)); assay: Pre-emergence herbicidal activity, cool season; format: in vivo, Elymus repens; conditions: GR80 = lowest tested rate (300, 100, 30, 10 g/ha) with 80% or greater inhibition; approx. 14 days after treating; 18/13° C.
Procedure, shortened: as §4

KCHSC (kochia) [5] = assay: Pre-emergence herbicidal activity, cool season; format: in vivo, Kochia scoparia; conditions: lowest tested rate with 80% or greater inhibition; rates 300, 100, 30, 10 g/ha; about 14 days
Protocol: Tables 5 to 8 summarize results of tests conducted as described below to determine the pre-emergence herbicidal activity, in the form of a GR80 value, of illustrative compounds of this invention. […] Compounds of the invention were typically applied at rates of 300, 100, 30, and 10 g/ha. Where herbicidal activity was evident but 80% inhibition was not achieved at the highest rate tested, an asterisk (*) is shown in the following tables.
as §5, §3
The plant species usually regarded as weeds which were utilized in the tests are identified in the tables below according to the following legend, in which “d” indicates a dicotyledonous species and “m” a monocotyledonous species. All monocotyledonous species included in the tests herein are grasses.

CONAR (field bindweed) [6] = assay: Pre-emergence herbicidal activity, warm season; format: in vivo, Convolvulus arvensis; conditions: GR80 = lowest tested rate (300, 100, 30, 10 g/ha) with 80% or greater inhibition; approx. 14 days after treating; 30/21° C.
Procedure, shortened: as §4

AVEFA (wild oat) = assay: Pre-emergence herbicidal activity, cool season; format: in vivo, Avena fatua; conditions: GR80 = lowest tested rate (300, 100, 30, 10 g/ha) with 80% or greater inhibition; approx. 14 days after treating; 18/13° C.
Procedure, shortened: as §4

BROTE (downy brome) = assay: Pre-emergence herbicidal activity, cool season; format: in vivo, Bromus tectorum; conditions: GR80 = lowest tested rate (300, 100, 30, 10 g/ha) with 80% or greater inhibition; approx. 14 days after treating; 18/13° C.
Procedure, shortened: as §4

[7] = system: IPOSS (annual morningglory); assay: Pre-plant incorporated (PPI) herbicidal activity, warm season; format: in vivo, Ipomoea spp.; conditions: Ipomoea, PPI application, read-out: Percent inhibition IPOSS
Protocol: as §1, §2, §3

[8] = Abutilon theophrasti, pre-emergence application, read-out: Percent inhibition, weed ABUTH
[9] = Datura stramonium, pre-emergence application, read-out: Percent inhibition, weed DATST

SMILES | PPI activity (GR80) POROL (POROL (common purslane)) | PPI activity GR80, KCHSC (KCHSC (kochia) [1]) | inhibition at 10 g/ha (ABUTH (velvetleaf); [8]) | inhibition at 30 g/ha (ABUTH (velvetleaf); [8]) | inhibition at 300 g/ha (ABUTH (velvetleaf); [8]) | inhibition at 900 g/ha (ABUTH (velvetleaf); [8]) | Pre-emergence activity (GR80) ABUTH (ABUTH (velvetleaf)) | inhibition at 10 g/ha (corn (ZEAMX)) | inhibition at 30 g/ha (corn (ZEAMX)) | inhibition at 100 g/ha (corn (ZEAMX)) | inhibition at 300 g/ha (corn (ZEAMX)) | inhibition at 900 g/ha (corn (ZEAMX)) | PPI activity (GR80) CIRAR [2] | inhibition at 10 g/ha (DATST (jimsonweed); [9]) | inhibition at 30 g/ha (DATST (jimsonweed); [9]) | inhibition at 100 g/ha (DATST (jimsonweed); [9]) | inhibition at 300 g/ha (DATST (jimsonweed); [9]) | Pre-emergence activity (GR80) DATST (DATST (jimsonweed)) | PPI activity (GR80) CONAR (CONAR (field bindweed) [3]) | inhibition at 300 g/ha [7] | other results
CCN(CC)C(=O)n1cnc(S(=O)(=O)C(F)(F)Br)n1 [Example 1, 3-(bromodifluoromethylsulfonyl)-1-(N,N-diethylcarbamoyl)-1,2,4-triazole] | 30 g/ha | 100 g/ha | 0% | 0% | 0% | 0% | 300 g/ha | 0% | 0% | 0% | 0% | 10% | 100 g/ha | 0% | 0% | 0% | 0% | 300 g/ha | 100 g/ha | 60% | Pre-emergence activity (GR80) LOLMG (LOLMG (annual ryegrass)): 100 g/ha; inhibition at 900 g/ha (DATST (jimsonweed); Datura stramonium, pre-emergence application, 900 g/ha, read-out: Percent inhibition, weed DATST): 20%; Pre-emergence activity (GR80) AGRRE [4]: 300 g/ha; Pre-emergence activity GR80, KCHSC (KCHSC (kochia) [5]): 300 g/ha; Pre-emergence activity (GR80) CONAR (CONAR (field bindweed) [6]): 300 g/ha; Pre-emergence activity (GR80) AVEFA (AVEFA (wild oat)): 100 g/ha; Pre-emergence activity (GR80) BROTE (BROTE (downy brome)): 300 g/ha; inhibition at 10 g/ha ([7]; 10 g/ha): 0%; inhibition at 900 g/ha [7]: 80%
CCN(CC)C(=O)n1cnc(S(=O)(=O)C(F)F)n1 [Example 15, 1-(N,N-diethylcarbamoyl)-3-(difluoromethylsulfonyl)-1,2,4-triazole] | 100 g/ha | 100 g/ha | 0% | 0% | 0% | 0% | 300 g/ha | 0% | 0% | 0% | 0% | 0% | 100 g/ha | 0% | 0% | 0% | 0% | 300 g/ha | * (activity observed, at least at highest rate, but <80% inhibition) | 20% | inhibition at 100 g/ha (ABUTH (velvetleaf); Abutilon theophrasti, pre-emergence application, 100 g/ha, read-out: Percent inhibition, weed ABUTH): 0%; inhibition at 30 g/ha ([7]; 30 g/ha): 0%; inhibition at 900 g/ha [7]: 20%
